# Assay results from patent US6906198B1, “Antipicornaviral compounds, their preparation and use” (Agouron Pharmaceuticals, Inc., priority 1998, dated 2005).
# Read-outs that look alike come from different tables or passages of the source.
# Experiments:
# [1] = tested on: Coxsackievirus type A-21 (CAV-21); assay: Anticoxsackieviral cell culture assay (XTT), CAV-21; format: cell-based; settings: Coxsackievirus, H1-HeLa
# Description: (§1) Anticoxsackieviral Cell Culture Assay
# (§2) Coxsackievirus types A-21 (CAV-21) and B3 (CVB-3) were purchased from American Type Culture Collection (ATCC, Rockville, Md.). Virus stocks were propagated and antiviral assays were performed in H1-HeLa cells (ATCC). Cells were grown in minimal essential medium with 10% fetal bovine serum (Life Technologies, Gaithersburg, Md.).
# (§3) The ability of compounds to protect cells against either CAV-21 or CVB-3 infection was measured by the XTT dye reduction method. This method is described in Weislow et al., J. Natl. Cancer Inst. 1989, vol. 81, 577-586. H1-HeLa cells were infected with CAV-21 or CVB-3 at a multiplicity of infection (m.o.i.) of 0.025 or 0.075, respectively, or mock-infected with medium only. H1-HeLa cells were plated at 4×10^4 cells per well in a 96-well plate and incubated with appropriate concentrations of the test compound. One day (CVB-3) or two days (CAV-21) later, XTT/PMS was added to test plates and the amount of formazan produced was quantified spectrophotometrically at 450/650 nm. The EC50 was calculated as the concentration of compound that increased the formazan production in compound-treated, virus-infected cells to 50% of that produced by compound-free, uninfected cells. […] The therapeutic index (TI) was calculated by dividing the CC50 by the EC50. […]
# [2] = tested on: HRV-14; assay: Antirhinoviral H1-HeLa cell culture assay (XTT), HRV-14; format: cell-based, human rhinovirus; settings: Rhinovirus B, HRV14
# Description: (§4) Antirhinoviral H1-HeLa Cell Culture Assay
# (§5) In this cell protection assay, the ability of compounds to protect cells against HRV infection was measured by the XTT dye reduction method, which is described in Weislow et al., J. Natl. Cancer Inst. 1989, vol. 81, 577-586.
# (§6) H1-HeLa cells were infected with HRV-14 at a multiplicity of infection (m.o.i.) of 0.13 (virus particles/cell) or mock-infected with medium only. Infected or mock-infected cells were resuspended at 8×10^5 cells per mL, and incubated with appropriate concentrations of the compounds to be tested. Two days later, XTT/PMS was added to test plates and the amount of formazan produced was quantified spectrophotometrically at 450/650 nm. The EC50 value was calculated as the concentration of compound that increased the percentage of formazan production in compound-treated, virus-infected cells to 50% of that produced by compound-free, mock-infected cells. The 50% cytotoxic dose (CC50) was calculated as the concentration of compound that decreased the percentage of formazan produced in compound-treated, mock-infected cells to 50% of that produced by compound-free, mock-infected cells. The therapeutic index (TI) was calculated by dividing the CC50 value by the EC50 value.
# (§7) All strains of human rhinovirus (HRV) for use in this assay were purchased from American Type Culture Collection (ATCC), except for HRV serotype-14 (produced from the infectious cDNA clone constructed by Dr. Robert Rueckert, Institute for Molecular Virology, University of Wisconsin, Madison, Wis.). HRV stocks were propagated and viral assays were performed in H1-HeLa cells (ATCC). Cells were grown in minimal essential medium with 10% fetal bovine serum, available from Life Technologies (Gaithersburg, Md.).
# The compounds were tested against control compounds WIN 51711, WIN 52084, and WIN 54954 (obtained from Sterling-Winthrop Pharmaceuticals), Pirodavir (obtained from Janssen Pharmaceuticals), and Pleconaril (prepared according to the method described in Diana et al., J. Med. Chem 1995, vol. 38, 1355). Antiviral data obtained for the test compounds are shown in Tables 1 and 3, where all data are for HRV serotype-14 unless otherwise noted in parentheses.
# [3] = tested on: HRV serotype 87; assay: Antirhinoviral H1-HeLa cell culture assay (XTT), HRV-87; format: cell-based; settings: Human rhinovirus sp., H1-HeLa cells
# Description: as §4, §5
# as §6, with “value. […]” for “value.”
# [4] = tested on: enterovirus type 70 (EV 70); assay: Anti-enteroviral cell culture assay (XTT), EV 70; format: cell-based; settings: Enterovirus D, MRC5
# Description: (§8) Anti-Echoviral and -Enteroviral Cell Culture Assays
# (§9) Echovirus type 11 (EV 11) and enterovirus type 70 (EV 70) were purchased from ATCC (Rockville, Md.). Virus stocks were propagated and antiviral assays were performed in MRC-5 cells (ATCC). Cells were grown in minimal essential medium with 10% fetal bovine serum (Life Technologies, Gaithersburg, Md.).
# (§10) The ability of compounds to protect cells against either EV 11 or EV 70 infection was measured by the XTT dye reduction method (Weislow et al., J. Natl. Cancer Inst. 1989, vol. 81, 577-586). MRC-5 cells were infected with EV 11 or EV 70 at an m.o.i. of 0.003 or 0.004, respectively, or mock-infected with medium only. Infected or uninfected cells were added at 1×10^4 cells per well and incubated with appropriate concentrations of compound. Four days later, XTT/PMS was added to test plates, and the amount of formazan produced was quantified spectrophotometrically at 450/650 nm. The EC50 was calculated as the concentration of compound that increased the formazan production in compound-treated, virus-infected cells to 50% of that produced by compound-free, uninfected cells. […] The therapeutic index (TI) was calculated by dividing the CC50 by the EC50. […]
# [5] = tested on: HRV serotype 1A; assay: Antirhinoviral H1-HeLa cell culture assay (XTT), HRV-1A; format: cell-based, human rhinovirus; settings: Human rhinovirus sp., H1-HeLa cells
# Description: as §4, §5, §6, §7
# (§11) The compounds were tested against control compounds WIN 51711, WIN 52084, and WIN 54954 (obtained from Sterling-Winthrop Pharmaceuticals), Pirodavir (obtained from Janssen Pharmaceuticals), and Pleconaril (prepared according to the method described in Diana et al., J. Med. Chem 1995, vol. 38, 1355). […]
# [6] = tested on: HRV serotype 17; assay: Antirhinoviral H1-HeLa cell culture assay (XTT), HRV-17; format: cell-based; settings: Human rhinovirus sp., H1-HeLa cells
# Description: as §4, §5
# as §6, with “value. […]” for “value.”
# [7] = tested on: Echovirus type 11 (EV 11); assay: Anti-echoviral cell culture assay (XTT), EV 11; format: cell-based; settings: Enterovirus B, MRC5
# Description: as §8, §9, §10
# [8] = tested on: HRV serotype 89; assay: Antirhinoviral H1-HeLa cell culture assay (XTT), HRV-89; format: cell-based; settings: Human rhinovirus sp., H1-HeLa cells
# Description: as §4, §5
# as §6, with “value. […]” for “value.”
# [9] = tested on: HRV serotype 38; assay: Antirhinoviral H1-HeLa cell culture assay (XTT), HRV-38; format: cell-based; settings: Human rhinovirus sp., H1-HeLa cells
# Description: as §4, §5
# as §6, with “value. […]” for “value.”
# [10] = tested on: HRV serotype 39; assay: Antirhinoviral H1-HeLa cell culture assay (XTT), HRV-39; format: cell-based; settings: Human rhinovirus sp., H1-HeLa cells
# Description: as §4, §5
# as §6, with “value. […]” for “value.”
# [11] = tested on: HRV serotype 9; assay: Antirhinoviral H1-HeLa cell culture assay (XTT), HRV-9; format: cell-based; settings: Human rhinovirus sp., H1-HeLa cells
# Description: as §4, §5
# as §6, with “value. […]” for “value.”
# [12] = tested on: HRV serotype 25; assay: Antirhinoviral H1-HeLa cell culture assay (XTT), HRV-25; format: cell-based; settings: Human rhinovirus sp., H1-HeLa cells
# Description: as §4, §5
# as §6, with “value. […]” for “value.”
# [13] = tested on: HRV serotype 30; assay: Antirhinoviral H1-HeLa cell culture assay (XTT), HRV-30; format: cell-based; settings: Human rhinovirus sp., H1-HeLa cells
# Description: as §4, §5
# as §6, with “value. […]” for “value.”
# [14] = tested on: HRV serotype 13; assay: Antirhinoviral H1-HeLa cell culture assay (XTT), HRV-13; format: cell-based; settings: Human rhinovirus sp., H1-HeLa cells
# Description: as §4, §5
# as §6, with “value. […]” for “value.”
# [15] = Cytotoxicity in uninfected H1-HeLa cells (anticoxsackieviral assay, XTT); format: cell-based; settings: human; 50% cytotoxic dose, uninfected H1-HeLa cells (Table 4)
# Description: as §2
# The ability of compounds to protect cells against either CAV-21 or CVB-3 infection was measured by the XTT dye reduction method. This method is described in Weislow et al., J. Natl. Cancer Inst. 1989, vol. 81, 577-586. H1-HeLa cells were infected with CAV-21 or CVB-3 at a multiplicity of infection (m.o.i.) of 0.025 or 0.075, respectively, or mock-infected with medium only. H1-HeLa cells were plated at 4×10^4 cells per well in a 96-well plate and incubated with appropriate concentrations of the test compound. One day (CVB-3) or two days (CAV-21) later, XTT/PMS was added to test plates and the amount of formazan produced was quantified spectrophotometrically at 450/650 nm. The EC50 was calculated as the concentration of compound that increased the formazan production in compound-treated, virus-infected cells to 50% of that produced by compound-free, uninfected cells. The 50% cytotoxic dose (CC50) was calculated as the concentration of compound that decreased formazan production in compound-treated, uninfected cells to 50% of that produced in compound-free, uninfected cells. The therapeutic index (TI) was calculated by dividing the CC50 by the EC50.
# [16] = Cytotoxicity in uninfected MRC-5 cells (anti-echoviral/-enteroviral assay, XTT); format: cell-based; settings: human, 50% cytotoxic dose
# Description: as §9
# The ability of compounds to protect cells against either EV 11 or EV 70 infection was measured by the XTT dye reduction method (Weislow et al., J. Natl. Cancer Inst. 1989, vol. 81, 577-586). MRC-5 cells were infected with EV 11 or EV 70 at an m.o.i. of 0.003 or 0.004, respectively, or mock-infected with medium only. Infected or uninfected cells were added at 1×10^4 cells per well and incubated with appropriate concentrations of compound. Four days later, XTT/PMS was added to test plates, and the amount of formazan produced was quantified spectrophotometrically at 450/650 nm. The EC50 was calculated as the concentration of compound that increased the formazan production in compound-treated, virus-infected cells to 50% of that produced by compound-free, uninfected cells. The 50% cytotoxic dose (CC50) was calculated as the concentration of compound that decreased formazan production in compound-treated, uninfected cells to 50% of that produced in compound-free, uninfected cells. The therapeutic index (TI) was calculated by dividing the CC50 by the EC50.
# [17] = tested on: HRV serotype 2; assay: Antirhinoviral H1-HeLa cell culture assay (XTT), HRV-2; format: cell-based; settings: Human rhinovirus sp., H1-HeLa cells
# Description: as §4, §5
# as §6, with “value. […]” for “value.”
# [18] = tested on: HRV serotype 12; assay: Antirhinoviral H1-HeLa cell culture assay (XTT), HRV-12; format: cell-based; settings: Human rhinovirus sp., H1-HeLa cells
# Description: as §4, §5
# as §6, with “value. […]” for “value.”
# [19] = tested on: HRV serotype 16; assay: Antirhinoviral H1-HeLa cell culture assay (XTT), HRV-16; format: cell-based; settings: Human rhinovirus sp., H1-HeLa cells
# Description: as §4, §5
# as §6, with “value. […]” for “value.”
# [20] = tested on: Coxsackievirus type B3 (CVB-3); assay: Anticoxsackieviral cell culture assay (XTT), CVB-3; format: cell-based; settings: Coxsackievirus, H1-HeLa
# Description: as §1, §2, §3
# [21] = tested on: HRV serotype 10; assay: Antirhinoviral H1-HeLa cell culture assay (XTT), HRV-10; format: cell-based, human rhinovirus; settings: Human rhinovirus sp., H1-HeLa cells
# Description: as §4, §5, §6, §7, §11
# [22] = Cytotoxicity in mock-infected H1-HeLa cells (antirhinoviral assay, XTT); format: cell-based; settings: human, 50% cytotoxic dose
# Description: as §6, §7
# [23] = tested on: HRV serotype 3; assay: Antirhinoviral H1-HeLa cell culture assay (XTT), HRV-3; format: cell-based; settings: Human rhinovirus sp., H1-HeLa cells
# Description: as §4, §5
# as §6, with “value. […]” for “value.”
compound,measurement,setting,value
"CCOC(=O)/C=C/[C@H](C[C@@H]1CCNC1=O)NC(=O)[C@H](Cc1ccc(F)cc1)NC(=O)[C@@H](NC(=O)c1cc(C)on1)C(C)C [(A-5), Ethyl-3-{(5′-Methylisoxazole-3′-carbonyl)-L-Val-L-(4-F-Phe)-L-((S)-Pyrrol-Ala)}-E-Propenoate]",EC50,[1],230 nM
same,EC50,"[2]; HRV serotype-14, H1-HeLa cells (Table 1), read-out: Cell Protection EC50",5 nM
same,EC50,"[2]; HRV serotype-14, H1-HeLa cells (Table 3), read-out: EC50",5 nM
same,EC50,[3],210 nM
same,EC50,[4],40 nM
same,EC50,[5],30 nM
same,EC50,[6],20 nM
same,EC50,[7],80 nM
same,EC50,[8],20 nM
same,EC50,[9],130 nM
same,EC50,[10],20 nM
same,EC50,[11],40 nM
same,EC50,[12],180 nM
same,EC50,[13],60 nM
same,EC50,[14],20 nM
same,CC50,[15],> 10000 nM
same,melting point,,219 to 220 °C
same,CC50 at 4 days,[16],> 10000 nM
same,EC50,[17],10 nM
same,EC50,[18],60 nM
same,EC50,[19],20 nM
same,EC50,[20],1000 nM
same,EC50,[21],50 nM
same,CC50 at 2 days,[22],> 10000 nM
same,EC50,[23],50 nM
"CCOC(=O)/C=C/[C@H](C[C@@H]1CCNC1=O)NC(=O)[C@H](Cc1ccc(F)cc1)NC(=O)[C@@H](NC(=O)c1cc(C)on1)C(C)(C)C [(A-7), Ethyl-3-{(5′-Methylisoxazole-3′-carbonyl)-L-α-(t-Butyl-Gly)-L-(4-F-Phe)-L-((S)-Pyrrol-Ala)}-E-Propenoate]",EC50,[3],590 nM
same,EC50,[9],170 nM
same,EC50,[12],200 nM
same,EC50,[13],90 nM
same,EC50,[18],70 nM
same,CC50 at 2 days,[22],> 10000 nM
